Results taken from patent publication US6818656B2, “Method and composition for treatment of irritable bowel disease” (University of Florida, priority 2001, dated 2004).

Columns and labels:
[1] = system: stress-induced fecal output; experiment: Psychological stress-induced (water avoidance) IBS model, SC administration; type: in vivo; details: for Stool Output: 6-h collection
Source text: (§1) For drug preparation and administration, the compounds were put into solution with sterile normal saline and sonicated briefly, if necessary. The drugs were made up at concentrations such that the rats received the drugs PO or SC at the rate of 1 cc per kilogram. Mice received the CHX(3,4,3)-trans IP at 1 cc per 100 grams. The solutions were made fresh the day of the study. Control animals received an equivalent amount of saline PO or SC.
Animal care and experimental procedures were approved by the Institutional Animal Care and Use Committee. Male Sprague-Dawley rats (250-350 g, Harlan Sprague-Dawley, Indianapolis, Ind.) were housed in polycarbonate cages in a temperature- and humidity-controlled room with a 12-hour light/dark cycle. The experiments were performed at the same time of the day to decrease diurnal variability. A typical experiment involved 20 rats: 5 saline-treated controls and 5 pretreated with polyamine analogues at each of three doses as either a SC injection or a PO gavage. The rats in the SC studies and in one set of experiments involving PO administration were allowed ad libitum access to a standard rodent diet and tap water until the morning of the experiment. Stress was initiated 30 minutes post drug as described below. In another set of experiments involving PO administration, the animals were fasted overnight but were allowed free access to water. […] In a final experiment, non-stressed control rats were injected with saline SC and housed in individual polycarbonate cages. The fecal output (number of pellets) of the stressed and unstressed animals was recorded at 30-min intervals for a 6-h period, during which they received no food or water.
(§2) To initiate the stress, water was added to each cage to a depth of at least 4.5 cm, i.e., within 0.5 cm of the top of the Pyrex dish. To avoid contact with water, the rats stand on the glass dish for the 6 h of the study. Stool output was expressed as the total number of fecal pellets excreted over the 6-h collection period. Percent reduction was calculated by dividing the mean value from the treated animals (T) by the mean value from the control animals (C), subtracting the resulting quotient from 1.0, and multiplying by 100 [i.e., (1.0−T/C)×100].
(§3) A one-tailed t-test assuming unequal variance was performed on the stool output data of the treated vs control (0 mg/kg) animals for each compound. A value of P<0.05 was considered significant.
The psychological stress-induced IBS model involves subjecting the rats to an aversive stimulus (water) and observing the increase in fecal output over a period of time. […] Control rats received an equivalent amount of saline SC.

[2] = system: stress-induced fecal output; experiment: Psychological stress-induced (water avoidance) IBS model, PO administration by gavage; type: in vivo, rat; details: 2.3 μmol/kg PO, non-fasted, stress 30 min post drug, 6-hr collection
[3] = Acute toxicity assessment, single intraperitoneal injection; type: in vivo
Protocol: For the acute toxicity assessment the CHX(3,4,3)-trans was administered to female CD-1 mice (Charles River, Wilmington, Mass.) as a single intraperitoneal (IP) injection. The animals were carefully observed post-dosing and were scored 2 h after administration of the drug.
as §1

[4] = system: stress-induced fecal output; experiment: Psychological stress-induced (water avoidance) IBS model, PO administration by gavage; type: in vivo, rat; details: 6-hr collection
Source text: as §1
Animal care and experimental procedures were approved by the Institutional Animal Care and Use Committee. Male Sprague-Dawley rats (250-350 g, Harlan Sprague-Dawley, Indianapolis, Ind.) were housed in polycarbonate cages in a temperature- and humidity-controlled room with a 12-hour light/dark cycle. The experiments were performed at the same time of the day to decrease diurnal variability. A typical experiment involved 20 rats: 5 saline-treated controls and 5 pretreated with polyamine analogues at each of three doses as either a SC injection or a PO gavage. The rats in the SC studies and in one set of experiments involving PO administration were allowed ad libitum access to a standard rodent diet and tap water until the morning of the experiment. Stress was initiated 30 minutes post drug as described below. In another set of experiments involving PO administration, the animals were fasted overnight but were allowed free access to water. The animals were then stressed from ½ h to 2 h post-drug (data not shown). In a final experiment, non-stressed control rats were injected with saline SC and housed in individual polycarbonate cages. The fecal output (number of pellets) of the stressed and unstressed animals was recorded at 30-min intervals for a 6-h period, during which they received no food or water.
as §2, with “Once the drug had been administered, the animals were housed individually in polycarbonate cages containing a clear 70×50 mm Pyrex crystallization dish (Fisher, Pittsburgh, Pa.) inverted in the center and held in place with vacuum grease. To initiate” for “To initiate”
as §3
Because an orally active compound would be desirable for the treatment of IBS, selected analogues utilizing oral administration in the same model were assessed. In the initial studies animals were utilized that had been fasted overnight. Rodents were then given the drug of interest PO by gavage and stressed ½ h, 1 h, or 2 h post-drug. Unfortunately, because of the low baseline stool output in fasted control rats, the reductions in fecal output observed upon drug administration cannot be reported with any confidence (data not shown). Thereafter, only non-fasted animals were employed and were given the agents by gavage at doses of 11.6, 23.2, 57.8, or 115.6:mol/kg 30 minutes before initiating the stress. […] At doses of 11.6 and 23.2:mol/kg, CHX(3,4,3)-trans reduced stooling by about 80% (P=0.001 and <0.001, respectively). DEHSPM was effective at a dose of […]:mol/kg (40% diminution of fecal output; P<0.01), and DE(5,4,5) was active at doses of 23.2 and 57.8:mol/kg (55 and 73% reductions in fecal output, respectively; P<0.001 for both doses).

[5] = system: castor oil-induced diarrhea; details: cited from earlier work

CCNCCCN[C@H]1CC[C@H](NCCCNCC)CC1 [Compound 12, N,N′-bis[3-(ethylamino)propyl]-trans-1,4-cyclohexanediamine]
Stool Output ([1]; 0.0726 μmol/kg SC): 5.4 ± 2.1 number of fecal pellets | Stool Output ([1]; 0.145 μmol/kg SC): 2.2 ± 1.3 number of fecal pellets | Stool Output ([1]; 0.29 μmol/kg SC): 0.6 ± 0.9 number of fecal pellets | toxic effects observed in stressed rats ([1]; 0.58 μmol/kg SC): ^gToxic effects were evident, including huddling in the corner of the cage. | Stool Output ([1]; 0.58 μmol/kg SC): 0 ± 0 number of fecal pellets | toxic effects observed in stressed rats ([1]; 1.16 μmol/kg SC): ^gToxic effects were evident, including huddling in the corner of the cage. | Stool Output ([1]; 1.16 μmol/kg SC): 0 ± 0 number of fecal pellets | toxic effects observed in stressed rats ([1]; 2.3 μmol/kg SC): ^gToxic effects were evident, including huddling in the corner of the cage. | Stool Output ([1]; 2.3 μmol/kg SC, stress 30 min post drug): 0 ± 0 number of fecal pellets | diminution in fecal output ([1]; 0.07 :mol/kg SC): 50% | inhibition in vivo at 0.0726 µmol/kg ([1]; Rattus norvegicus, 0.0726 μmol/kg SC, vs stressed controls, 6 h, read-out: % Reduction): 52% | inhibition in vivo at 0.145 µmol/kg ([1]; Rattus norvegicus, 0.145 μmol/kg SC, vs stressed controls, 6 h, read-out: % Reduction): 80% | inhibition in vivo at 0.29 µmol/kg ([1]; Rattus norvegicus, 0.29 μmol/kg SC, vs stressed controls, 6 h, read-out: % Reduction): 95% | inhibition in vivo at 0.58 µmol/kg ([1]; Rattus norvegicus, 0.58 μmol/kg SC, vs stressed controls, 6 h, read-out: % Reduction): 100% | inhibition in vivo at 1.16 µmol/kg ([1]; Rattus norvegicus, 1.16 μmol/kg SC, vs stressed controls, 6 h, read-out: % Reduction): 100% | inhibition in vivo at 2.3 µmol/kg ([1]; Rattus norvegicus, 2.3 μmol/kg SC, vs stressed controls, 6 h, read-out: % Reduction): 100% | activity at diminishing stress-induced fecal output (in words) ([1]; SC administration to stressed rats): most effective against stress-induced stooling, regardless of the mode of administration | dose needed to reduce fecal output of the stressed animals to that of the unstressed controls ([1]; SC, rats): 0.0625 mg/kg | lowest dose that reduced stool output by >50% relative to the stressed controls ([1]; SC, rats): 0.03125 mg/kg | 1 mg/kg neurotoxic dose relative to lowest dose reducing stool output by >50% ([1]; rats, 1 mg/kg vs 0.03125 mg/kg): greater than 30 times | Stool Output [2]: 9.0 ± 1.6 number of fecal pellets | acute toxicity ([3]; IP, female CD-1 mice, single dose, scored 2 h): about 150 mg/kg | toxic doses (neurological signs) ([3]; IP, single dose, mice): ≥ 125 mg/kg | toxic dose in mice, allometrically scaled, relative to the 0.0625 mg/kg effective dose in rats ([3]; mouse toxic dose vs rat dose of 0.0625 mg/kg): at least 1000 times | signs of acute toxicity in mice ([3]; toxic doses, mice): uncoordinated movements, intention tremors, and severe motor dysfunction, especially of the hind limbs | Stool Output ([4]; 11.6 μmol/kg PO): 2.2 ± 1.3 number of fecal pellets | Stool Output ([4]; 23.2 μmol/kg PO): 2.0 ± 1.9 number of fecal pellets | doses at which signs of motor dysfunction, including seizures, were observed ([5]; rats, rodent antidiarrheal model): ≥ 1 mg/kg | activity in castor oil-induced diarrhea model (in words) ([5]; rodent): most effective of the SPM analogues tested
